Nine compounds from ChEMBL document CHEMBL5465560, “Selectivity Literature for EUbOPEN Chemogenomic Library” (2024) can be followed below.

In test [1] the target is T1, Mitogen-activated protein kinase 12 (Homo sapiens) (UniProt P53778).
T1 sequence (whole entry): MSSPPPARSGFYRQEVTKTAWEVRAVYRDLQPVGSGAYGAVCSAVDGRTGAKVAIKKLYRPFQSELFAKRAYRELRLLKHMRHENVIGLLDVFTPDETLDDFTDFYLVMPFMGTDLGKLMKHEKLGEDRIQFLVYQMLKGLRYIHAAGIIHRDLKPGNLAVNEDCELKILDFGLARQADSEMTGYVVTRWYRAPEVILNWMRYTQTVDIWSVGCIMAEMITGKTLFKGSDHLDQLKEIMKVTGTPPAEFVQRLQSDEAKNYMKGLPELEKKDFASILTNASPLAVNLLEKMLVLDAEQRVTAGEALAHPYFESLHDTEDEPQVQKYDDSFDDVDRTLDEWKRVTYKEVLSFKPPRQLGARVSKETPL
The experiment in a line: Selectivity interaction (ProQinase) EUB0000171b MAPK12.

Test [2] has as its target T2, Inhibitor of nuclear factor kappa-B kinase subunit epsilon (Homo sapiens) (UniProt Q14164).
T2 sequence (whole entry): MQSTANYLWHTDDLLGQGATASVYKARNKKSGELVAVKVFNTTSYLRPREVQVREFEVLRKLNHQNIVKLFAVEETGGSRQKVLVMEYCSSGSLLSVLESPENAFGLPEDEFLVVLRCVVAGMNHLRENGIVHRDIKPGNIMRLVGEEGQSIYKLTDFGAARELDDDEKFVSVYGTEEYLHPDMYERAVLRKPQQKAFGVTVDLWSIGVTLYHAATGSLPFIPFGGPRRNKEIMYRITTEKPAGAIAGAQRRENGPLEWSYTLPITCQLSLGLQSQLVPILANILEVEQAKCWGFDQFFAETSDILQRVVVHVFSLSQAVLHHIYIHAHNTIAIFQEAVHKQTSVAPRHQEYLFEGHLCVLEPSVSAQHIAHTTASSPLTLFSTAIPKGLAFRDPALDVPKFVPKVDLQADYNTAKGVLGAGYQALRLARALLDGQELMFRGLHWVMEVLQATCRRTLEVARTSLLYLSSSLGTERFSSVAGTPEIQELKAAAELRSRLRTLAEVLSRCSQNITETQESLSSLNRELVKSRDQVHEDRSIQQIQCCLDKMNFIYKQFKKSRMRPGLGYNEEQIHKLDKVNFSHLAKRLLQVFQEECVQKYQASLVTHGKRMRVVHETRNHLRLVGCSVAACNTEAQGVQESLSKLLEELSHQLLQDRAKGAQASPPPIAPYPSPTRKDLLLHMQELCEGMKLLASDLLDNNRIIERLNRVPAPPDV
The experiment in a line: Selectivity interaction (Ambit KINOMEscan and KiNATiv profiling in Jurkat cells) EUB0000090b IKBKE. In kind it is cell-based. To be noted: at 1 µM.

Test [3] addresses Casein kinase I isoform delta (Homo sapiens, UniProt P48730). The experiment in a line: Selectivity interaction (KinomeScan (DiscoverX)) EUB0001079a CSNK1D. Particulars: at 1 µM.
The target in test [4] is Ribosomal protein S6 kinase alpha-4 (Homo sapiens) (UniProt O75676). Kind of test: Selectivity interaction (KinomeScan (DiscoverX)) EUB0000695a RPS6KA4. Particulars: at 100 nM.
The target in test [5] is Estrogen receptor (Homo sapiens) (UniProt P03372). The experiment in a line: Selectivity interaction (Eurofins CEREP Diversity Profile (receptors and ion channels)) EUB0000279b ESR1. Particulars: at 10 µM.
In test [6] the target is T3, Casein kinase I isoform alpha-like (Homo sapiens) (UniProt Q8N752).
T3 sequence (whole entry): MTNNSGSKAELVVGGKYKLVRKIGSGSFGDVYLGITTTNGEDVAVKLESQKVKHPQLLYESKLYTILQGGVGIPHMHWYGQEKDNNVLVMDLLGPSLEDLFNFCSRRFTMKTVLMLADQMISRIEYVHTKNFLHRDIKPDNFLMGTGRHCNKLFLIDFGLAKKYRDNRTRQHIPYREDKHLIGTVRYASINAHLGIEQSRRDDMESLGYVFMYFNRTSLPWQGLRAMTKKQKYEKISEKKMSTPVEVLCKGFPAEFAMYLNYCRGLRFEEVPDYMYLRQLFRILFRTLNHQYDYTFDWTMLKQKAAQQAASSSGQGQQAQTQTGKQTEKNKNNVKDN
The experiment in a line: Selectivity interaction (Kinase panel (Z-LYTE Assay)) EUB0001632a CSNK1A1L. Particulars: at 10 µM.

Test [7] addresses T4, Kinase suppressor of Ras 2 (Homo sapiens) (UniProt Q6VAB6).
T4 sequence (whole entry): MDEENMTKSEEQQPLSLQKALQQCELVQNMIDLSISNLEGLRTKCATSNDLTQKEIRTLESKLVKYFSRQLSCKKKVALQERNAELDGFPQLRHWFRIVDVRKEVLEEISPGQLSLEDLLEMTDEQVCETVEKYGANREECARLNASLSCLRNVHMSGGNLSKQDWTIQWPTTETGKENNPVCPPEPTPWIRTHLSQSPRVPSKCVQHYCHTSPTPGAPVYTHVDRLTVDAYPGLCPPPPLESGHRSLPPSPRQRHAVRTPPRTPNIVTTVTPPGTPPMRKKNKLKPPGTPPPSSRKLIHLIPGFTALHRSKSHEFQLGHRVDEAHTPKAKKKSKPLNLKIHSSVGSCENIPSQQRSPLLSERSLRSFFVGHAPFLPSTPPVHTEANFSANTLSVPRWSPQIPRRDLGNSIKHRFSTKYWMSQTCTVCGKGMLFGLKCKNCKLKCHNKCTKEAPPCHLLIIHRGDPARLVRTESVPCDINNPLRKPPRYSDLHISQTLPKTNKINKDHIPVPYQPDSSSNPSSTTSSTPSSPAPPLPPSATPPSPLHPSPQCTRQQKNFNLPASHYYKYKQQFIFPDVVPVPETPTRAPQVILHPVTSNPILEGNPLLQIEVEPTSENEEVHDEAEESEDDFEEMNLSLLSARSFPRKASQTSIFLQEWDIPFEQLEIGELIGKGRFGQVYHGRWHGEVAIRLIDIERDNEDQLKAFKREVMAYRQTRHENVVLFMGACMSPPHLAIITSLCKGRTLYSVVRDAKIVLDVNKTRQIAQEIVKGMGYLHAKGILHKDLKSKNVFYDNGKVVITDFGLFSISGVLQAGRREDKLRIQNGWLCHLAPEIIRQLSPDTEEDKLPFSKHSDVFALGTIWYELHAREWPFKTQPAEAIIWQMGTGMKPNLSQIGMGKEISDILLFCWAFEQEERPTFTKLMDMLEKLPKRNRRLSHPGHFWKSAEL
Kind of test: Selectivity interaction (ActivX KiNativ screen (kinase selectivity in THP-1 cell lysates)) EUB0000639a KSR2. In kind it is subcellular. Particulars: lysate.

Test [8] concerns the target SRSF protein kinase 2 (Homo sapiens) (UniProt P78362). The experiment in a line: Selectivity interaction (KinomeScan (DiscoverX)) EUB0000229b SRPK2. Particulars: at 10 µM.
For test [9], the target named is Insulin receptor-related protein (Homo sapiens) (UniProt P14616). Kind of test: Selectivity interaction (KinomeScan (DiscoverX)) EUB0000618a INSRR. Particulars: at 10 µM.

Molecules are shown by their SMILES.

Chain of Casein kinase I isoform delta (P48730 whole entry, looked up, canonical isoform): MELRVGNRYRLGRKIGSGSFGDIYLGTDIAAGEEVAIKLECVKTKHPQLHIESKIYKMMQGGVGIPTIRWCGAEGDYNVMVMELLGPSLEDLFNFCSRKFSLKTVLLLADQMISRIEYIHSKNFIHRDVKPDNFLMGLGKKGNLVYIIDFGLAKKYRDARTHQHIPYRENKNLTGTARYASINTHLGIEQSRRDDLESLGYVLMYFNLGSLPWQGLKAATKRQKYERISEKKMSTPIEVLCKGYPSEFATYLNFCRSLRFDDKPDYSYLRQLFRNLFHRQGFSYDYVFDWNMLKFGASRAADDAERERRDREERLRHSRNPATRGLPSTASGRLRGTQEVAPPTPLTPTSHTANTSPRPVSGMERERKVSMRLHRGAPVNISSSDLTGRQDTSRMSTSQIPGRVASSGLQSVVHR
Chain of Ribosomal protein S6 kinase alpha-4 (Homo sapiens) (O75676 whole entry, looked up): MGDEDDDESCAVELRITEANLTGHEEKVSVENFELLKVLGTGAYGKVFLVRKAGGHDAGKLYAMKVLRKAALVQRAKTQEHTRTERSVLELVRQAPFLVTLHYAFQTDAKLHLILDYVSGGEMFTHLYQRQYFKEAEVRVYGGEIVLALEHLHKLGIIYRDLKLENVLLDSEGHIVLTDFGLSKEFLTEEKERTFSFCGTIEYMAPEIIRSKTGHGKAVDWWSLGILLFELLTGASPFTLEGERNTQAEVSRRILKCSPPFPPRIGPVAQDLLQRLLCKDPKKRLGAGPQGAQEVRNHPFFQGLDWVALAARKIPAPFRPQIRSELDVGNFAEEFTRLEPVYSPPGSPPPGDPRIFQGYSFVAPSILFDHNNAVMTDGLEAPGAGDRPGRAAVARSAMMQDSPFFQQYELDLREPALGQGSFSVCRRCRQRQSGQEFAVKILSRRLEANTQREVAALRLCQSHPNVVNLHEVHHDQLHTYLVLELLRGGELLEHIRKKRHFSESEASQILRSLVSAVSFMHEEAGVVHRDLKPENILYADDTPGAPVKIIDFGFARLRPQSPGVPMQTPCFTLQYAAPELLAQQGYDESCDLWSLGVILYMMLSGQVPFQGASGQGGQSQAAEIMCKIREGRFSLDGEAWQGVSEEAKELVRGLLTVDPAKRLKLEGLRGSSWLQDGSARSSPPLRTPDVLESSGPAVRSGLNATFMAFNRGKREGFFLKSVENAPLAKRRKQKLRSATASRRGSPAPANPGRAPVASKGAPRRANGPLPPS
Chain of Insulin receptor-related protein (Homo sapiens) (P14616 27-742 limits assumed): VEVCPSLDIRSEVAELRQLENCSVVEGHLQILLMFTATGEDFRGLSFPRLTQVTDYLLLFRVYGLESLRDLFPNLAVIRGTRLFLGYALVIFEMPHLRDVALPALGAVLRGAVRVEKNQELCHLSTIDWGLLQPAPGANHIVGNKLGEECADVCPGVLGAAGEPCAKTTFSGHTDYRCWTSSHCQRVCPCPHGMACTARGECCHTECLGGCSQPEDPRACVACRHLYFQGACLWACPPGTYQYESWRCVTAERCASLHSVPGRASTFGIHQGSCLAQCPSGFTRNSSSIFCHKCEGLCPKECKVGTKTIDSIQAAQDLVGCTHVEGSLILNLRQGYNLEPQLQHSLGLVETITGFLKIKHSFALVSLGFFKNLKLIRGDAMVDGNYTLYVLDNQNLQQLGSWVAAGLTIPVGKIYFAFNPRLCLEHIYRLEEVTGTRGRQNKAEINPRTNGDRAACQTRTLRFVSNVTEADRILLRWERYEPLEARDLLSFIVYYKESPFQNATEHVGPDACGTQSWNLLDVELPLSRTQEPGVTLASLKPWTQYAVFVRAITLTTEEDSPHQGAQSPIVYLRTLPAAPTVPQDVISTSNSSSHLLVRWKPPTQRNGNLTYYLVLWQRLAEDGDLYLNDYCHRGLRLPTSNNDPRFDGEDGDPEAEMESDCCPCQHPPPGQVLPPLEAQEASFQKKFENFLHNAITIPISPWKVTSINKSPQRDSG
Chain of Insulin receptor-related protein (Homo sapiens) (P14616 747-1297 limits assumed): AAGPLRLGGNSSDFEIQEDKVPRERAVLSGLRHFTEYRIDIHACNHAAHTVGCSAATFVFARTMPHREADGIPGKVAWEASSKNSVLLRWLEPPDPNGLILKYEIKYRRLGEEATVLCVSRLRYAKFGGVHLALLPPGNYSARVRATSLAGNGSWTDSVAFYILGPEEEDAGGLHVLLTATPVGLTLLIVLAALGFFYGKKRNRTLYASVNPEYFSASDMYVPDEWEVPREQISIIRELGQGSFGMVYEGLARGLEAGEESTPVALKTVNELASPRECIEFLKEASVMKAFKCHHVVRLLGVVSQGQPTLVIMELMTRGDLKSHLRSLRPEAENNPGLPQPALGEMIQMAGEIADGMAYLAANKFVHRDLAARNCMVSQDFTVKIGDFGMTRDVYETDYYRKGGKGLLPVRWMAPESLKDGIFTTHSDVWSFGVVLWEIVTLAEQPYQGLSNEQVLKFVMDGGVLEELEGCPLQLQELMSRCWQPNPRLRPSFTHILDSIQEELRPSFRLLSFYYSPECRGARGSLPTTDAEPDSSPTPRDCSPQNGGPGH
Chain of Estrogen receptor (Homo sapiens) (P03372 whole entry, canonical isoform): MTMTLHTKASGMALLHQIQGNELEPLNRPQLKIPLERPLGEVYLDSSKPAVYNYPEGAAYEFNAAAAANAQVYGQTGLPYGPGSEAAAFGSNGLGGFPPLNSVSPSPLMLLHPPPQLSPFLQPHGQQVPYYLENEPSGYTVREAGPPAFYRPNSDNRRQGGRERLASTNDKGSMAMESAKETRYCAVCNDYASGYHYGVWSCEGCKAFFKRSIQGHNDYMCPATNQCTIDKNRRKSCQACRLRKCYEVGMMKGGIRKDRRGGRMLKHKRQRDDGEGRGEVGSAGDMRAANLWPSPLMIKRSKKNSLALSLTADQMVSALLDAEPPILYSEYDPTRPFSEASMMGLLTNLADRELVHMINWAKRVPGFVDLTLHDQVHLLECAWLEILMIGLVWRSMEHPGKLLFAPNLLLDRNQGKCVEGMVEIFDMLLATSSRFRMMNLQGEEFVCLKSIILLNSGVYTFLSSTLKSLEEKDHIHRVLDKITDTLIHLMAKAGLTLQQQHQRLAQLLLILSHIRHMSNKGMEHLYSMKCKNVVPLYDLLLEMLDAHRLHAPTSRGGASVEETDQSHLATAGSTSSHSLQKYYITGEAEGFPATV
Chain of SRSF protein kinase 2 (Homo sapiens) (P78362 whole entry, looked up): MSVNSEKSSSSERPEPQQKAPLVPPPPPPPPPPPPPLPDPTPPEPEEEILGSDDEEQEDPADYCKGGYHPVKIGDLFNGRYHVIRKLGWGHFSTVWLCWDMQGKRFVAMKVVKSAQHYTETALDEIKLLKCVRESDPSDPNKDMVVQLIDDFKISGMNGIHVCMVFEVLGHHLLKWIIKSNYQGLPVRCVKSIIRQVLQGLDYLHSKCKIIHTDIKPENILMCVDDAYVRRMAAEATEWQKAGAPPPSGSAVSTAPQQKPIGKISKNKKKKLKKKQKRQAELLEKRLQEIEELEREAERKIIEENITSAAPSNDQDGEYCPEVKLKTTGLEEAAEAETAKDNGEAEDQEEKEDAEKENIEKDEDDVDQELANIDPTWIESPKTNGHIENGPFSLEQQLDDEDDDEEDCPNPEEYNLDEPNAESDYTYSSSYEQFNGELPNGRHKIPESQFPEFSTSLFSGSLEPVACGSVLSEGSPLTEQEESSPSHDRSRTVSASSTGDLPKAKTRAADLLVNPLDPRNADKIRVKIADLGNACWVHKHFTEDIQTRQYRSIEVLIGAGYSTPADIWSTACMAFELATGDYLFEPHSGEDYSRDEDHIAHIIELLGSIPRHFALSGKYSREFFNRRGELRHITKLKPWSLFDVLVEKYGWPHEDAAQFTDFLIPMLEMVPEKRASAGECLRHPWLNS

For `C=CC(=O)Nc1cccc(C(=O)Nc2ccc(Nc3cc(-c4[nH]c(SC)nc4C)ccn3)cc2)c1`, the % of control in [1] (at 1 µM) was 94%; in test [1] (at 5 µM) it was 87%.
Turning to `CN(C)C/C=C/C(=O)Nc1ccc(C(=O)N2CCCC(Nc3ncc(Cl)c(-c4c[nH]c5ccccc45)n3)C2)cc1` (stereo not drawn), in test [2], the % of control was determined as 100%.
For `Nc1cnc(N2CCc3cc(S(=O)(=O)Nc4c(F)cc(Cl)cc4F)cc(N4CCCC4=O)c32)nc1` [TP-020n], in [3], the % of control came out at 98%.
For the compound `Cc1cc(F)c(C(=O)Nc2cccc(-c3nncn3C(C)C)n2)cc1-n1cnc(C2CC2)c1`, the % of control in test [4] was 69%.
For the compound `CC(=O)c1cc(-c2ccccc2OCC2CC2)c2ncccn12`, in [5], the % of control is 98%.
Take `Cn1cc(-n2cnc3c(NCc4nc5cc(Cl)c(Cl)cc5[nH]4)nc(N4CCOCC4)nc32)cn1`: in [6], the % of control was -0.03%.
Consider `CC[C@@H]1[C@H](F)C(=O)N[C@@H]1COc1nccc2cc(C(N)=O)c(OC)cc12` [ZIMLOVISERTIB], for which the % of inhibition in test [7] (at 0.01 µM) was 2.4%; in test [7] (at 0.2 µM) it was -8.6%; in [7] (at 1 µM), -32.8%; in [7] (at 5 µM), -57.9%.
Compound `COc1cc(N(C)c2ccnc3ccc(C(F)(F)F)cc23)cc(OC)c1OC` yielded a % binding in [8] of 94%.
For `O[C@H]1CC[C@H](Nc2ncc3nc(Nc4c(F)cc(F)cc4F)n([C@H]4CCOC4)c3n2)CC1`, the % of control in test [9] was determined as 100%.
